Assay results from patent US8183394B2, “Protease inhibitor precursor synthesis” (priority 2005, dated 2012).

Key:
Type in all cases: cell-based
[1] = system: HIV mutant strain Mutant 1; assay: cellular assay using MT4-LTR-EGFP cells for anti-viral activity, mutant 1; conditions: Human immunodeficiency virus 1, 72 h, read-out: pEC50 Mutant 1 (converted)
Procedure: (§1) The compounds were tested in a cellular assay using the MT4-LTR-EGFP cells for anti-viral activity.
(§2) The cellular assay was performed according to the following procedure. HIV- or mock-infected MT4-LTR-EGFP cells were incubated for three days in the presence of various concentrations of the compounds mentioned above. Upon infection, the viral tat protein activates the GFP reporter. At the end of the incubation period, the GFP signal was measured. In the virus control samples (in the absence of any inhibitor) the maximal fluorescent signal was obtained. The inhibitory activity of the compound was monitored on the virus-infected cells and EC50 values were calculated. These values represent the amount of the compound required to protect 50% of the cells from virus infection. The data presented in table 1 contain the pEC50 values, being the negative logarithm of the EC50-values.

[2] = system: HIV mutant strain Mutant 2; assay: cellular assay using MT4-LTR-EGFP cells for anti-viral activity, mutant 2; conditions: Human immunodeficiency virus 1, 72 h, read-out: pEC50 Mutant 2 (converted)
Procedure: as §1, §2

[3] = system: wild type laboratory HIV strain (WT IIIB-2-001); assay: microbe, parasite or virus in culture; conditions: Human immunodeficiency virus 1, 72 h, MT4-LTR-EGFP cells, three days incubation, GFP signal
Procedure: as §1
as §2, with “In the virus control samples (in the absence of any inhibitor) the maximal fluorescent signal was obtained.” left out

[4] = system: HIV mutant strain Mutant 3; assay: cellular assay using MT4-LTR-EGFP cells for anti-viral activity, mutant 3; conditions: Human immunodeficiency virus 1, 72 h, read-out: pEC50 Mutant 3 (converted)
Procedure: as §1, §2

[5] = system: HIV mutant strain Mutant 4; assay: cellular assay using MT4-LTR-EGFP cells for anti-viral activity, mutant 4; conditions: Human immunodeficiency virus 1, 72 h, read-out: pEC50 Mutant 4 (converted)
Procedure: as §1, §2

SMILES	EC50 [1]	EC50 [2]	EC50 [3]	EC50 [4]	EC50 [5]
CC(C)CN(C[C@@H](O)[C@H](Cc1ccccc1)NC(=O)O[C@H]1CO[C@H]2OC[C@H](OCc3ccccc3)[C@H]21)S(=O)(=O)c1ccc(N)cc1 [Compound 13, {3-[(4-amino-benzenesulfonyl)-isobutyl-amino]-1-benzyl-2-hydroxy-propyl}-carbamic acid 4-benzyloxy-hexahydro-furo[2,3-b]furan-3-yl ester]	10 nM	316 nM	1.58 nM	126 nM	2000 nM
CC(C)CN(C[C@@H](O)[C@H](Cc1ccccc1)NC(=O)O[C@H]1CO[C@H]2OCC[C@H]21)S(=O)(=O)c1ccc(N)cc1 [TMC 114, (3R,3aS,6aR)-hexahydrofuro[2,3-b]furan-3-yl N-[(1S,2R)-1-benzyl-2-hydroxy-3-(N1-isobutylsulfanilamido)propyl]carbamate, reference compound]	8.13 nM	794 nM			3720 nM
